From ChEMBL document CHEMBL1201862, “PubChem BioAssay data set” (2004)
Calls of active or inactive are those of the source.

Assays:
Streptokinase A = molecular target: T1, Streptokinase A (Streptococcus pyogenes serotype M1, UniProt P10520); experiment: S. pyogenes streptokinase expression inhibitors, potency, dose response, plasminogen activation absorbance, OD405 (AID 1914); assay type: functional, Streptococcus pyogenes M1 GAS;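 further: secreted streptokinase activity via plasminogen activation per viability signal from cell pellet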
T1 sequence (P10520 whole entry): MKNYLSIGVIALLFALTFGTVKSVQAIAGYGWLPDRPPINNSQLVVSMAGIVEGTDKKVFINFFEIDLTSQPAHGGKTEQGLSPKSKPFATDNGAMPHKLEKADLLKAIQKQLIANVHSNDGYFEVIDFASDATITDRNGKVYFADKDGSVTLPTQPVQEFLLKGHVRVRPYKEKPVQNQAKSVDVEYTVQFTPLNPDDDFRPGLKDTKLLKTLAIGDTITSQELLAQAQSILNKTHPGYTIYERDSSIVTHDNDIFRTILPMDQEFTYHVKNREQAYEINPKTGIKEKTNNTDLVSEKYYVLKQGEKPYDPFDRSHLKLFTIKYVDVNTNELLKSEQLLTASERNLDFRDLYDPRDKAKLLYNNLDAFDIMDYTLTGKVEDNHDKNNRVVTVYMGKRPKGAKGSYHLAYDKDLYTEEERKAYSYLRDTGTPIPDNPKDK

[1] = molecular target: Low molecular weight phosphotyrosine protein phosphatase (Homo sapiens, UniProt P24666); assay type: functional; conditions: read-out: IC50_Mean;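 further: Dose-response confirmation assay measuring inhibition of LMPTP enzyme activity by fluorescence intensity read-out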
[2] = tested on: Streptococcus sp. 'group A'; experiment: growth inhibition of control SK(-) GAS strain, dose response, counter-screen for streptokinase expression inhibitor project, luminescence, kanamycin, BacTiterGlo, confirmation (AID 1900); assay type: functional, organism-based
Streptococcus = experiment: Group A Streptococcus viability loss, dose response, counter-screen for streptokinase expression inhibitor project, luminescence, BacTiterGlo (AID 1915); assay type: functional, organism-based;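 further: potency for reduction of bacterial viability or growth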
[3] = molecular target: T2, High affinity choline transporter 1 (Homo sapiens, UniProt Q9GZV3); experiment: CHT inhibitors, dose response, cell-based, 10-point CRC, membrane potential dye (AID 588401); assay type: functional;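 further: membrane potential dye fluorescence of choline-evoked depolarization via CHT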
T2 sequence (Q9GZV3 whole entry): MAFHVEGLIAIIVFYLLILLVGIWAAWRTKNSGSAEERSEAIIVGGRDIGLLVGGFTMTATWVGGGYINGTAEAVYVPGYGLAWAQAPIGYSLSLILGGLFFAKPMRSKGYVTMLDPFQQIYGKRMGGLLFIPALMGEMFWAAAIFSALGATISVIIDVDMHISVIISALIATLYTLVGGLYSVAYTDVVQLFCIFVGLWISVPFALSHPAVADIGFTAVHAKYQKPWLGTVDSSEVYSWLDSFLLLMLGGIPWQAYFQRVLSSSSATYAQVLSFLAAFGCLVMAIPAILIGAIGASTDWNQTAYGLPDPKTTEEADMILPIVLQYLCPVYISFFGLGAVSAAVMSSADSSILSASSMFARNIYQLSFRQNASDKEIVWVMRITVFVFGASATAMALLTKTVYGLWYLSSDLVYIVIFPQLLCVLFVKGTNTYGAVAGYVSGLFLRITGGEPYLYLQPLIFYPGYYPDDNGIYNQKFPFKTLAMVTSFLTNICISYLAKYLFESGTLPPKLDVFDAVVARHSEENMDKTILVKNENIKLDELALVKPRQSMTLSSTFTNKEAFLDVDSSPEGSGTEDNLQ

[4] = molecular target: T2, High affinity choline transporter 1; experiment: CHT inhibitors, dose response, cell-based, 5-point CRC, membrane potential dye (AID 504840); assay type: functional
[5] = molecular target: 72 kDa type IV collagenase (Homo sapiens, UniProt P08253); experiment: Dose Response validation of uHTS RPN11 inhibitor hits using a MMP-2 Fluorescence assay.; assay type: functional
Prothrombin = Prothrombin (Bos taurus, UniProt P00735); experiment: thrombin inhibition, dose response, biochemical, fluorescence polarization, uHTS hits (AID 602369); assay type: functional
[6] = molecular target: 26S proteasome non-ATPase regulatory subunit 14 (Homo sapiens, UniProt O00487); experiment: inhibition of proteasome subunit RPN11 – biochemical, fluorescence polarization, uHTS hits, confirmation (AID 602368); assay type: functional
[7] = molecular target: Potassium voltage-gated channel subfamily KQT member 2 (Rattus norvegicus, UniProt O88943); experiment: KCNQ2 potassium channel inhibitors, dose response, cell-based, automated electrophysiology, set II, rat KCNQ2 (AID 588637); assay type: functional
Escherichia coli = experiment: microbe, parasite or virus in culture
[8] = molecular target: T3, Sentrin-specific protease 8 (Homo sapiens, UniProt Q96LD8); assay type: functional;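 further: luminescence read-out of SENP8 inhibition, dose-response confirmation following an ultra-high-throughput screen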
T3 sequence (Q96LD8 whole entry): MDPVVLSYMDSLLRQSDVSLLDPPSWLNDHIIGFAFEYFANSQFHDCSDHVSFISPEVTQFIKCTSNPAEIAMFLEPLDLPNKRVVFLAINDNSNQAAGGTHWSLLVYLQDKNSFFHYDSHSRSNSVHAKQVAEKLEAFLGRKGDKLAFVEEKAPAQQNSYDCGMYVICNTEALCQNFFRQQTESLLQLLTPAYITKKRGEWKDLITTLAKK

[9] = molecular target: Sentrin-specific protease 6 (Homo sapiens, UniProt Q9GZR1); assay type: functional;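 further: Luminescence-based dose-response confirmatory assay of SENP6 inhibition, following up an ultra-high-throughput screen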
[10] = molecular target: Sentrin-specific protease 7 (Homo sapiens, UniProt Q9BQF6); assay type: functional;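 further: Luminescence-based dose-response confirmation of ultra-high-throughput screening hits, measuring inhibition of SENP7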
Caspase-3 = molecular target: T4, Caspase-3 (Homo sapiens, UniProt P42574); assay type: functional;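 further: Dose-response selectivity test against caspase-3 for candidate inhibitors of sentrin-specific proteases (SENPs)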
T4 sequence (P42574 whole entry): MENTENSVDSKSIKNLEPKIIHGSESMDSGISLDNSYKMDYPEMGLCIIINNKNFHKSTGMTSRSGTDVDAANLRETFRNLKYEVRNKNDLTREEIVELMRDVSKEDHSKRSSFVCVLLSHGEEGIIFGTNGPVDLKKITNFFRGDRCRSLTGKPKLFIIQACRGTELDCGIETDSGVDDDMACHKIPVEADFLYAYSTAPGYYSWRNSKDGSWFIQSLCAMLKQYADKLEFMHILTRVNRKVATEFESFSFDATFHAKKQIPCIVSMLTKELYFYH

[11] = inhibitors of HIV Env-driven cell fusion, dose response, cherry-pick (AID 652057); assay type: functional, cell-based
[12] = inhibitors of clade B AD8 Env fusion, dose response, cell-based, cherry-pick (AID 652062); assay type: functional;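 further: luciferase signal from cell-cell fusion driven by HIV-1 clade B AD8 Env; potency is for inhibitors of fusion seen as a drop in luminescence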
Cysteine protease ATG4B = Cysteine protease ATG4B (Homo sapiens, UniProt Q9Y4P1); assay type: functional;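 further: Fluorescence-based dose-response confirmation assay measuring inhibition of ATG4B activity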
[13] = CEM21 cell cytotoxicity, dose response, cytotoxicity control, plate reader, dry powder (AID 687026); assay type: functional, cell-based
[14] = HIV Env cell-cell fusion inhibitors, dose response, HIV entry, plate reader, dry powder (AID 687023); assay type: functional, cell-based
Phospholipase A2 = Phospholipase A2 (Homo sapiens, UniProt P04054); assay type: functional;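 further: confirmatory dose-response counterscreen on phospholipase A2, testing hits that came from an ultra-high-throughput screen for ATG4B inhibitors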
[15] = ZM109 Env clade C HIV-1 fusion inhibitors, dose response, HeLa effector, CEM target cells, luciferase, cherry-pick (AID 652058); assay type: functional, cell-based

Sentrin-specific protease 6, sequence (Q9GZR1 whole entry): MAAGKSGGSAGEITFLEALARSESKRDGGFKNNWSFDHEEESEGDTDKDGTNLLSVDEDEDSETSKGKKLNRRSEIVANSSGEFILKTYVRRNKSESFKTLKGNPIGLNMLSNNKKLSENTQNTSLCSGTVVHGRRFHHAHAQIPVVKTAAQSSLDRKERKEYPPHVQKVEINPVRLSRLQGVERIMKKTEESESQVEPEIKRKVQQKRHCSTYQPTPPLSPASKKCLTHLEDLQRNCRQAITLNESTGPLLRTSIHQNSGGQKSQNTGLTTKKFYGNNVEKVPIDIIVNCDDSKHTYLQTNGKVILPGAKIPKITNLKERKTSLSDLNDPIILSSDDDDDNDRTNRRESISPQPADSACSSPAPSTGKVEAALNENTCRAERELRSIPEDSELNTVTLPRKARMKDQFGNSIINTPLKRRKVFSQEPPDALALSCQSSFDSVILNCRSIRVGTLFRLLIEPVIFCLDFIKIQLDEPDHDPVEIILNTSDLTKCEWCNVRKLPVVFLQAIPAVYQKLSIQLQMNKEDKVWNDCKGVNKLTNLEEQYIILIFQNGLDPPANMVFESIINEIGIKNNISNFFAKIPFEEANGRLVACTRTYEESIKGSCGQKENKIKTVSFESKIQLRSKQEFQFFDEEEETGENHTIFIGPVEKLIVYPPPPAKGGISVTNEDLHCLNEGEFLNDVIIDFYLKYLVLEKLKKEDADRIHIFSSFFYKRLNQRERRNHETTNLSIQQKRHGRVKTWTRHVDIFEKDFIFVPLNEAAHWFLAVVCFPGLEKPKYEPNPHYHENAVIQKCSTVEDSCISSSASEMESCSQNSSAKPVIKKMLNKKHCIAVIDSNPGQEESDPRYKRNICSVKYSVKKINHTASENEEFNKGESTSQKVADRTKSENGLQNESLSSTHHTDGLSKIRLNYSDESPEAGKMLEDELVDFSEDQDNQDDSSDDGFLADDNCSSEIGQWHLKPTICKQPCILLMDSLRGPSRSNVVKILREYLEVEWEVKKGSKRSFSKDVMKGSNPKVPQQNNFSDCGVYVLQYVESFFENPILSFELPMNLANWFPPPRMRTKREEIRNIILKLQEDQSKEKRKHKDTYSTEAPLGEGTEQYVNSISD
Sentrin-specific protease 7, sequence (Q9BQF6 whole entry): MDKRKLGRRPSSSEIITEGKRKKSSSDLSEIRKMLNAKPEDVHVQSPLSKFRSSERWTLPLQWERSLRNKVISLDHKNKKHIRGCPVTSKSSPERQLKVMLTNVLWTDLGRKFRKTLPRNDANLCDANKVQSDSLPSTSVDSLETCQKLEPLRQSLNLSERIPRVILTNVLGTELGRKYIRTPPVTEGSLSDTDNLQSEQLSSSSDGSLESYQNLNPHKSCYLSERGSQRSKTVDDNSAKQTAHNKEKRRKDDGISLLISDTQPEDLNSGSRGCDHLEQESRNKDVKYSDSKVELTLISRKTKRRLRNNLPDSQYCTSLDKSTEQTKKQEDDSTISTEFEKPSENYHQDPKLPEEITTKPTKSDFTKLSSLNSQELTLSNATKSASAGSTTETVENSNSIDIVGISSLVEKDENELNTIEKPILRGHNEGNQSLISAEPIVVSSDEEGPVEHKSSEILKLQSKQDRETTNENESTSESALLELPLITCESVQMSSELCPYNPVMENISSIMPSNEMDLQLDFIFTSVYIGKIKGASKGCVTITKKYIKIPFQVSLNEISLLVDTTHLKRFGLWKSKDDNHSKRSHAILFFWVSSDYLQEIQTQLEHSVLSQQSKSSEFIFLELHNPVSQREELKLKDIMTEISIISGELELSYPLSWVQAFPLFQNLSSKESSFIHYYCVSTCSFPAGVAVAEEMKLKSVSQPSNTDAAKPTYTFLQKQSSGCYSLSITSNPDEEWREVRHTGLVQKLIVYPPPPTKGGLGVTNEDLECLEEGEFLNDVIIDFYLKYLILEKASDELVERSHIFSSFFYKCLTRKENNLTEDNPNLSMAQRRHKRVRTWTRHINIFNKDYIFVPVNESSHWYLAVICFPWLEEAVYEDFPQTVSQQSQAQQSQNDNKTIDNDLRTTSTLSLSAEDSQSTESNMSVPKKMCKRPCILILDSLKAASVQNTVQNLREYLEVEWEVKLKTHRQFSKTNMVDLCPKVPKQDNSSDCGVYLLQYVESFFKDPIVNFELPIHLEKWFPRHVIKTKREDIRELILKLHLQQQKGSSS
Low molecular weight phosphotyrosine protein phosphatase, sequence (P24666 whole entry): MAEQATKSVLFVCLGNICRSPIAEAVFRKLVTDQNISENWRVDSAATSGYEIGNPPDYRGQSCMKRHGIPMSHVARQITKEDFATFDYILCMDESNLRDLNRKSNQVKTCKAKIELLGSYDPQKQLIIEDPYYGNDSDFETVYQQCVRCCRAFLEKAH
Potassium voltage-gated channel subfamily KQT member 2, sequence (O88943 whole entry): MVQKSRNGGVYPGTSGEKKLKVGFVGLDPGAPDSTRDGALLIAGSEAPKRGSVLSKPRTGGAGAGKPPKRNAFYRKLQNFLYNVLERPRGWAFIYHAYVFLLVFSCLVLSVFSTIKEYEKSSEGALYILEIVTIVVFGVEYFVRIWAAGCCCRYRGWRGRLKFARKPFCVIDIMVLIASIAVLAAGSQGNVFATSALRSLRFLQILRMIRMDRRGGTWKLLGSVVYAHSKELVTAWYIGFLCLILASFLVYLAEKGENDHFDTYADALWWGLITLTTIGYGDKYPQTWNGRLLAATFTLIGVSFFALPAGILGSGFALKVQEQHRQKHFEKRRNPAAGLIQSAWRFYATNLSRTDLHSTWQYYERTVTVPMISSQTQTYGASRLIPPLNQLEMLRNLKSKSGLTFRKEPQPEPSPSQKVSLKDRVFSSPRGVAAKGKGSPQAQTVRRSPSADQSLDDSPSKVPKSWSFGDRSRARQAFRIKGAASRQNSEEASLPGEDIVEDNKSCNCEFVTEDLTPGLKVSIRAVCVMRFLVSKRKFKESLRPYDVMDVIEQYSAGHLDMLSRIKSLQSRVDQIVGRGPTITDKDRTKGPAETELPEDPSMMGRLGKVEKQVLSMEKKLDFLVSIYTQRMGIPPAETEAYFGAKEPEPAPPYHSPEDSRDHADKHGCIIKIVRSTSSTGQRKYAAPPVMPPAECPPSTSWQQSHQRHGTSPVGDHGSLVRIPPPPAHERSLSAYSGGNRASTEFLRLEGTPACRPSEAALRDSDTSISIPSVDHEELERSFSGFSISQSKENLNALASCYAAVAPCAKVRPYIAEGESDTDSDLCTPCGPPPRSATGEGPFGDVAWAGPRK
26S proteasome non-ATPase regulatory subunit 14, sequence (O00487 whole entry): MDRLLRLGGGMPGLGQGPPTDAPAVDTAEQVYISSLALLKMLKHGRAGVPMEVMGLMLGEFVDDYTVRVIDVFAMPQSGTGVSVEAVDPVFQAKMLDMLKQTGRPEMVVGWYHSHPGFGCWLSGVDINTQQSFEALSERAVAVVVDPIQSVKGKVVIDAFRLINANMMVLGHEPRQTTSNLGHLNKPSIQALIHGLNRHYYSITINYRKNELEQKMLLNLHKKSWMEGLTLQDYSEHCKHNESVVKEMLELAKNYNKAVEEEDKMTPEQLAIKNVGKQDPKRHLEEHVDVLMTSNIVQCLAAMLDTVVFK
Cysteine protease ATG4B, sequence (Q9Y4P1 whole entry): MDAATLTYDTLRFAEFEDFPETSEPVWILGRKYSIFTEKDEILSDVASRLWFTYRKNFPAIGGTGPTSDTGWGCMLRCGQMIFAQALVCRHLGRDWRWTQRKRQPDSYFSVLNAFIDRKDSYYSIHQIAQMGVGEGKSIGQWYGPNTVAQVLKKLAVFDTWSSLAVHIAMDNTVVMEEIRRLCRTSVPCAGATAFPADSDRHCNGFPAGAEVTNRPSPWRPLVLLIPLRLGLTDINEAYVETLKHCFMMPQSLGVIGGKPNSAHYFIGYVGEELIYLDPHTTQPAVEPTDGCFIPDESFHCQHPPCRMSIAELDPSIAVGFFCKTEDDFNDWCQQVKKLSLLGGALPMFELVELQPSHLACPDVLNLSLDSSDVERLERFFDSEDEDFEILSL
72 kDa type IV collagenase, sequence (P08253 whole entry): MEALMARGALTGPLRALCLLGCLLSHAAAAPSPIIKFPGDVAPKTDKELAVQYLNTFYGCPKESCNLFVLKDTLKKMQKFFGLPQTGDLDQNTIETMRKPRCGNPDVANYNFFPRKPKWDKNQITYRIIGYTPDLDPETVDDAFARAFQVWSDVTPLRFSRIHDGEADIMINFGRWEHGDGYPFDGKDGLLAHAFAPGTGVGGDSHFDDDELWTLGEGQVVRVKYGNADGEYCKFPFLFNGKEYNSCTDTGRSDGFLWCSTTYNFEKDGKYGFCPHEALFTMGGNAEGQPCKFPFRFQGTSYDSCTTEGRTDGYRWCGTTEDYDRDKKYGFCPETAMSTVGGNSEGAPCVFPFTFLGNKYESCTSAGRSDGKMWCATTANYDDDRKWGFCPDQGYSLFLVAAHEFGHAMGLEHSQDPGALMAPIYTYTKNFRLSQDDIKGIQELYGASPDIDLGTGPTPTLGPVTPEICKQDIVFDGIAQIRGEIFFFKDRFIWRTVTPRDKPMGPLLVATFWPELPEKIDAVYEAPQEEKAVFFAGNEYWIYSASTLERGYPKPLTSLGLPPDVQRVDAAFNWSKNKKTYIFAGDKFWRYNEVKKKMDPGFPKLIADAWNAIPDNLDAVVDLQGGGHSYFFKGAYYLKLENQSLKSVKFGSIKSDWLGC
Phospholipase A2, sequence (P04054 whole entry, the tested form may be a part): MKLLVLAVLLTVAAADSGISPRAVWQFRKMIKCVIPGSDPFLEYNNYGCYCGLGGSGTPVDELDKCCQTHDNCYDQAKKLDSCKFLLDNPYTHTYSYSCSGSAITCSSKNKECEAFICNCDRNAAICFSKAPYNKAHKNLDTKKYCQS

Structure (SMILES): CCn1cc(C(=O)O)c(=O)c2cc(F)c(N3CCN(C(=S)NC(=O)c4cc(OC)cc(OC)c4)CC3)cc21
- EC50 (Streptokinase A): > 150 µM (not active)
- IC50 [1]: 1.47 µM (active)
- EC50 [2]: 2.89 µM (active)
- EC50 (Streptococcus): 30.2 µM (active)

Structure (SMILES): CCN(CC)CCCNC(=O)c1cn(CC)c2ccc(S(=O)(=O)N3CCc4ccccc4C3)cc2c1=O
- IC50 [3]: 2.67 µM (active)
- IC50 [4]: 4.17 µM (active)

Structure (SMILES): COC(=O)c1sc2nc(CSc3ccc(Br)cc3)[nH]c(=O)c2c1C
- IC50 [5]: > 100 µM (inactive)
- IC50 (Prothrombin): 30 µM (active)
- IC50 [6]: 26.6 µM (active)

Structure (SMILES): CN(C)S(=O)(=O)c1ccc(N2CCCC2)c(C(=O)NNC(=O)c2ccc(Br)cc2)c1
- IC50 [7]: 3.72 µM (active)

Structure (SMILES): CN(C/C=C/c1ccccc1[N+](=O)[O-])Cc1ccccc1
- AC50 (Escherichia coli): 42.7 µM (active)

Structure (SMILES): Cc1ccccc1-c1nnc(SCc2ccccc2F)o1
- IC50 [8]: 45.1 µM (active)
- IC50 [9]: 21.9 µM (active)
- IC50 [10]: 6.14 µM (active)
- IC50 (Caspase-3): 29.1 µM (active)

Structure (SMILES): Cc1nnsc1NC(=O)OCc1ccccc1Cl
- IC50 [8]: 52.7 µM (active)
- IC50 [9]: 45.6 µM (active)
- IC50 [10]: 13 µM (active)
- IC50 (Caspase-3): 21.4 µM (active)

Structure (SMILES): CCOc1ccc(C(=O)C2CCN(CC(=O)Nc3ccccc3N3CCOCC3)CC2)cc1
- AC50 [11]: 3.34 µM (active)
- AC50 [12]: 0.94 µM (active)
- IC50 (Cysteine protease ATG4B): 13.2 µM (active)
- AC50 [13]: > 70 µM (inactive)
- AC50 [14]: 10.4 µM (active)
- IC50 (Phospholipase A2): 11.9 µM (active)
- AC50 [15]: 10.8 µM (active)
